Assay results: patent US20220339122A1, “METHODS FOR THE TREATMENT OF DISEASES ASSOCIATED WITH DYSREGULATED ACTIVATION AND RECRUITMENT OF NEUTROPHILS” (Chang Gung University, priority 2021, published 2022)

Columns and labels:
human neutrophils [1] = assay: NET formation, quantification of extracellular DNA with Sytox green; type: cell-based; settings: 10 nM PMA; 1-10 μM bletinib
Protocol: Human neutrophils (10^6 cells/mL) resuspended in HBSS with 2.5 μM Sytox green were incubated with DMSO or bletinib for 10 min and stimulated using 10 nM PMA or 10 μg/mL LPS for 3 h. The fluorescence intensity was quantified on a Tecan Infinite 200 reader at 485-535 nm.

Btk (Y223) = assay: Immunoblotting of neutrophil lysates, Btk phosphorylation; type: cell-based, human; settings: 0.1 μM fMLF-stimulated neutrophils
Protocol: Neutrophils incubated with bletinib or DMSO at 37° C. for 5 min were stimulated with 0.1 μM fMLF for 30 s. The proteins were separated from neutrophil lysates through electrophoresis (12% sodium dodecyl sulphate-polyacrylamide gel electrophoresis) and then transferred to nitrocellulose membranes. The target proteins were identified through immunoblotting with specific antibodies against p38, p-p38, Akt, p-Akt S473, ERK, p-ERK, INK, p-JNK, Src, p-SFKs Y416, p-Src Y416, Lyn, p-Lyn (Y396), Fgr, p-Fgr (Y412), Hck, p-Hck (Y410), Btk, p-Btk Y223, Vav, and p-Vav (Y174) as well as with HRP-conjugated secondary anti-rabbit antibody (Cell Signaling Technology). The signal intensity was detected and quantified using the UVP BioSpectrum Imaging System (Analytik Jena, USA).

Lyn = Lyn (Homo sapiens, UniProt P07948); assay: Cell-free ADP-Glo kinase assay, Lyn; type: biochemical; settings: 1-10 μM bletinib or 0.1-3 μM PP2; 125 μM ATP; concentration-dependent
Chain of Lyn (P07948 whole entry): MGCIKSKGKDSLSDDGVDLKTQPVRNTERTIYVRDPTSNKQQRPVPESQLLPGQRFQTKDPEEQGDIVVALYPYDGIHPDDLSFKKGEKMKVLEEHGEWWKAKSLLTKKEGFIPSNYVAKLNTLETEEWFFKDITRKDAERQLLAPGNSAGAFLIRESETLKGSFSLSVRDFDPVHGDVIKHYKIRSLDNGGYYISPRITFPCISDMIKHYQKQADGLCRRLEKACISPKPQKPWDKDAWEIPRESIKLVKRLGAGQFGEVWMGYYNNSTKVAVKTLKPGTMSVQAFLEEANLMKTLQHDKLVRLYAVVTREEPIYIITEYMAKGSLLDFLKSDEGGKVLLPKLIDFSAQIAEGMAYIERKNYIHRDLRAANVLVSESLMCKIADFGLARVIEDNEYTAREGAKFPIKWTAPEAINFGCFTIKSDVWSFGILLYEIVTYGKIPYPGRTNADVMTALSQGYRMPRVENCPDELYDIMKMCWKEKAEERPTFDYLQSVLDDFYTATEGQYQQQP
Protocol: The kinase activity of SFKs was assessed using an ADP-Glo kinase assay kit (Promega, Fitchburg, USA) according to manufacturer instructions. […] The ADP-Glo reagent was used to end the kinase reaction and remove the remnant ATP; next, the kinase, which converted ADP to ATP, detection reagent was added and incubated for 30 min. Luciferin/luciferase luminescence was determined on an Infinite 200 Pro (Tecan, Switzerland).

human neutrophils [2] = assay: Neutrophil migration, microchemotaxis chamber; type: cell-based
Protocol: A microchemotaxis chamber with 3-μm filters (Millipore) was used to evaluate chemotactic migration of neutrophils. Neutrophils (5×10^6 cells/mL) treated with bletinib or DMSO for 5 min were placed in the top chamber, and 0.1 μM fMLF was added into the bottom chamber. The number of neutrophils that migrated from the top to the bottom chamber after incubation at 5% CO2 for 1 h was counted on a MoxiZ automatic cell counter (ORFLO).

SMILES: COc1cc(O)cc(CCc2c(Cc3ccc(O)cc3)ccc(O)c2Cc2ccc(O)cc2)c1 [bletinib, 3,3′-dihydroxy-2′,6′-bis(p-hydroxybenzyl)-5-methoxybibenzyl]
- NET formation induced by PMA, fluorescent spectrometry (Sytox green) (human neutrophils [1]): significantly mitigated
- phosphorylation of Btk (Y223) (Btk (Y223)): significantly inhibited
- kinase activity of Lyn (Lyn): inhibited
- fMLF-induced transwell migration of neutrophils (human neutrophils [2]; 1-10 μM bletinib, 0.1 μM fMLF): significantly reduced
- IL-8-induced neutrophil migration (human neutrophils [2]; IL-8, data not shown): inhibited
